≈ marks a conversion by molar mass, not a printed value.

What all share (type): functional
For assay [1], the system named is Cryptococcus neoformans. Description: Antifungal activity against Cryptococcus neoformans H99 by CLSI protocol-based broth serial dilution method.
Assay [2] concerns Cryptococcus neoformans. Description: Antifungal activity against Cryptococcus neoformans JEC21 by CLSI protocol-based broth serial dilution method.
For another assay, the system named is Candida albicans. Description: Antifungal activity against Candida albicans SC5314 by CLSI protocol-based broth serial dilution method.

For `CC(=O)[C@@H](CC(=O)O)[C@H]1Oc2cc(O)cc(O)c2C[C@@H]1O`, the MIC in the assay with Cryptococcus neoformans [1] is 169 µM (≈ 50 µg/mL); against Cryptococcus neoformans [2], 169 µM (≈ 50 µg/mL); with Candida albicans, over 169 µM.

For the molecule `COc1cc(O)c2c(=O)c(O[C@@H]3O[C@@H](C)[C@H](O)[C@@H](O)[C@H]3O)c(-c3ccc(O)c(O)c3)oc2c1`, the MIC in the assay with Cryptococcus neoformans [1] is 27 µM (≈ 12.5 µg/mL); with Candida albicans, over 433 µM.

For the molecule `OC(Cn1cncn1)(Cn1cncn1)c1ccc(F)cc1F` [FLUCONAZOLE], the MIC against Cryptococcus neoformans [1] stood at 25.5 µM (≈ 7.81 µg/mL); against Cryptococcus neoformans [2], 6.5 µM (≈ 1.99 µg/mL); against Candida albicans, 1.6 µM (≈ 0.49 µg/mL).

Turning to `O=C(Oc1cc(O)c2c(c1)O[C@H](c1ccc(O)c(O)c1)CC2)c1cc(O)c(O)c(O)c1`, the results for the minimal inhibitory concentration (MIC) against Cryptococcus neoformans [1], in the assay on Cryptococcus neoformans [2] and in the assay on Candida albicans were 1.9 µM (≈ 0.81 µg/mL), 3.8 µM (≈ 1.62 µg/mL) and 14.8 µM (≈ 6.31 µg/mL), respectively.

`COc1cc(O)c2c(=O)c(O[C@@H]3O[C@H](COC(=O)c4cc(O)c(O)c(O)c4)[C@@H](O)[C@H](O)[C@H]3O)c(-c3ccc(O)c(O)c3)oc2c1`: the results for the MIC against Cryptococcus neoformans [1] and in the assay on Candida albicans were 10 µM (≈ 6.31 µg/mL) and over 317 µM, respectively.

As for `Oc1cc(O)c2c(c1)O[C@H](c1ccc(O)c(O)c1)[C@@H](O)C2` [CIANIDANOL], the MIC in the assay on Cryptococcus neoformans [1] was 10.7 µM (≈ 3.11 µg/mL); in the assay on Candida albicans, over 690 µM.

For the molecule `COc1c(O)cc(C(=O)O)cc1O`, the MIC with Cryptococcus neoformans [1] was 67.9 µM (≈ 12.5 µg/mL); in the assay on Cryptococcus neoformans [2], 272 µM (≈ 50 µg/mL); in the assay with Candida albicans it was over 272 µM.

Take `Oc1cc(O)c2c(c1)O[C@H](c1ccc(O)c(O)c1)[C@@H](O)[C@@H]2c1c(O)cc(O)c2c1O[C@H](c1ccc(O)c(O)c1)[C@@H](O)C2`: the MIC is 5.4 µM (≈ 3.12 µg/mL) in the assay on Cryptococcus neoformans [1], 5.4 µM (≈ 3.12 µg/mL) in the assay with Cryptococcus neoformans [2] and over 86.5 µM against Candida albicans.

In the case of `O=C(Oc1cc(O)c2c(c1)O[C@H](c1ccc(O)c(O)c1)[C@@H](O)C2)c1cc(O)c(O)c(O)c1`, the MIC stood at 1.8 µM (≈ 0.796 µg/mL) in the assay on Cryptococcus neoformans [1] and 56.6 µM (≈ 25 µg/mL) against Candida albicans.

For the molecule `O=C(O[C@H]1[C@H](c2c(O)cc(O)c3c2O[C@H](c2ccc(O)c(O)c2)[C@@H](O)C3)c2c(O)cc(O)cc2O[C@@H]1c1ccc(O)c(O)c1)c1cc(O)c(O)c(O)c1`, the results for the minimum inhibitory concentration (MIC) in the assay with Cryptococcus neoformans [1], against Cryptococcus neoformans [2] and against Candida albicans were 4.2 µM (≈ 3.07 µg/mL), 8.5 µM (≈ 6.21 µg/mL) and 17.1 µM (≈ 12.5 µg/mL), respectively.

As to `CCOC(=O)c1cc(O)c(O)c(O)c1` [ETHYLGALLATE], the MIC was 126 µM (≈ 25 µg/mL) in the assay on Cryptococcus neoformans [1], 252 µM (≈ 50 µg/mL) in the assay on Cryptococcus neoformans [2] and over 252 µM against Candida albicans.

Take `O=C(Oc1cc([C@H]2Oc3cc(O)cc(O)c3C[C@@H]2O)ccc1O)c1cc(O)c(O)c(O)c1`: the minimum inhibitory concentration (MIC) against Cryptococcus neoformans [1] was 113 µM (≈ 50 µg/mL); with Cryptococcus neoformans [2] it was 113 µM (≈ 50 µg/mL); against Candida albicans, over 113 µM.

`COc1cc(O)c2c(=O)c(O)c(-c3ccc(O[C@@H]4O[C@H](CO)[C@@H](O)[C@H](O)[C@H]4O)c(O)c3)oc2c1`: the minimum inhibitory concentration (MIC) was 52.3 µM (≈ 25 µg/mL) against Cryptococcus neoformans [1], 105 µM (≈ 50 µg/mL) against Cryptococcus neoformans [2] and over 105 µM in the assay with Candida albicans.

Consider `C[C@]12OC(=O)C[C@H]1[C@H]1Oc3cc(O)cc(O)c3C[C@H]1O2`, for which the results for the minimum inhibitory concentration (MIC) in the assay with Cryptococcus neoformans [1], against Cryptococcus neoformans [2] and in the assay on Candida albicans were 180 µM (≈ 50 µg/mL), 180 µM (≈ 50 µg/mL) and over 180 µM, respectively.

`O=C(Oc1ccc([C@H]2Oc3cc(O)cc(O)c3C[C@@H]2O)cc1O)c1cc(O)c(O)c(O)c1`: the MIC in the assay on Cryptococcus neoformans [1] is 113 µM (≈ 50 µg/mL); against Cryptococcus neoformans [2], 113 µM (≈ 50 µg/mL); in the assay on Candida albicans, 56.6 µM (≈ 25 µg/mL).

Consider `O=C(OC[C@H]1O[C@@H](Oc2c(-c3ccc(O)c(O)c3)oc3cc(O)cc(O)c3c2=O)[C@H](O)[C@@H](O)[C@@H]1O)c1cc(O)c(O)c(O)c1`, for which the MIC against Cryptococcus neoformans [1] is 2.6 µM (≈ 1.6 µg/mL); against Candida albicans it was over 325 µM.

On to `O=C(O)c1cc(O)c(O)c(O)c1` [GALLIC ACID], for which the minimum inhibitory concentration (MIC) was 147 µM (≈ 25 µg/mL) against Cryptococcus neoformans [1], 147 µM (≈ 25 µg/mL) with Cryptococcus neoformans [2] and over 294 µM in the assay on Candida albicans.

As for `O=C(Oc1cc(O)c2c(c1)O[C@@H](c1ccc(O)c(O)c1)CC2)c1cc(O)c(O)c(O)c1`, the minimum inhibitory concentration (MIC) against Cryptococcus neoformans [1] stood at 1.9 µM (≈ 0.81 µg/mL); in the assay with Cryptococcus neoformans [2], 3.8 µM (≈ 1.62 µg/mL); against Candida albicans it was 14.8 µM (≈ 6.31 µg/mL).

As for `O=C(OC[C@H]1O[C@@H](Oc2c(-c3ccc(O)cc3)oc3cc(O)cc(O)c3c2=O)[C@H](O)[C@@H](O)[C@@H]1O)c1cc(O)c(O)c(O)c1`, the minimal inhibitory concentration (MIC) in the assay on Cryptococcus neoformans [1] was 20.8 µM (≈ 12.5 µg/mL); with Cryptococcus neoformans [2], 83.3 µM (≈ 50 µg/mL); against Candida albicans, over 83.3 µM.

Turning to `O=c1c(O[C@@H]2O[C@H](CO)[C@@H](O)[C@H](O)[C@H]2O)c(-c2ccc(O)c(O)c2)oc2cc(O)cc(O)c12` [ISOQUERCETIN], the minimal inhibitory concentration (MIC) against Cryptococcus neoformans [1] is 53.9 µM (≈ 25 µg/mL); with Cryptococcus neoformans [2], 108 µM (≈ 50 µg/mL); against Candida albicans it was over 108 µM.

As to `COc1cc(O)c2c(=O)c(O[C@@H]3O[C@@H](C)[C@H](O)[C@@H](O)[C@H]3O)c(-c3ccc(O)cc3)oc2c1`, the results for the MIC with Cryptococcus neoformans [1], against Cryptococcus neoformans [2] and against Candida albicans were 56 µM (≈ 25 µg/mL), 56 µM (≈ 25 µg/mL) and over 112 µM, respectively.

By MIC is commonly meant the lowest concentration that inhibits growth of the organism. A low value points to greater potency.

The record behind these values is ChEMBL document CHEMBL4665695, “Antifungal Phenols from Woodfordia uniflora Collected in Oman” (2020).
